Measurements as given in ChEMBL document CHEMBL4004825 (J Med Chem, 2017).
Active and inactive are the calls of the source. The rule behind the calls is not given here.

tested on: not listed separately; experiment: Permeability in RRCK cells; format: ADME, cell-based, Canis lupus familiaris, MDCKII-LE; conditions: dog, MDCK; read-out: permeability

Papp [×10⁻⁶ cm/s]	SMILES
20	C=CC(=O)N1CC[C@H]2CCN(c3ncnc4[nH]ccc34)[C@H]2C1
8	C=CC(=O)N1CCC[C@@H](Nc2ncnc3[nH]ccc23)C1
16	CC(=O)N1CC[C@H]2CCN(c3ncnc4[nH]ccc34)[C@H]2C1

molecular target: T1, Tyrosine-protein kinase JAK1 (Homo sapiens, UniProt P23458); experiment: Inhibition of recombinant human GST-tagged cytoplasmic JAK1 catalytic domain (866 to 1154 residues) expressed in baculovirus expression system using 5FAM-KKSRGDYMTMQID as substrate in presence of 40 uM ATP by microfluidic assay; conditions: not given
T1 sequence (P23458 whole entry, the tested form may be a part): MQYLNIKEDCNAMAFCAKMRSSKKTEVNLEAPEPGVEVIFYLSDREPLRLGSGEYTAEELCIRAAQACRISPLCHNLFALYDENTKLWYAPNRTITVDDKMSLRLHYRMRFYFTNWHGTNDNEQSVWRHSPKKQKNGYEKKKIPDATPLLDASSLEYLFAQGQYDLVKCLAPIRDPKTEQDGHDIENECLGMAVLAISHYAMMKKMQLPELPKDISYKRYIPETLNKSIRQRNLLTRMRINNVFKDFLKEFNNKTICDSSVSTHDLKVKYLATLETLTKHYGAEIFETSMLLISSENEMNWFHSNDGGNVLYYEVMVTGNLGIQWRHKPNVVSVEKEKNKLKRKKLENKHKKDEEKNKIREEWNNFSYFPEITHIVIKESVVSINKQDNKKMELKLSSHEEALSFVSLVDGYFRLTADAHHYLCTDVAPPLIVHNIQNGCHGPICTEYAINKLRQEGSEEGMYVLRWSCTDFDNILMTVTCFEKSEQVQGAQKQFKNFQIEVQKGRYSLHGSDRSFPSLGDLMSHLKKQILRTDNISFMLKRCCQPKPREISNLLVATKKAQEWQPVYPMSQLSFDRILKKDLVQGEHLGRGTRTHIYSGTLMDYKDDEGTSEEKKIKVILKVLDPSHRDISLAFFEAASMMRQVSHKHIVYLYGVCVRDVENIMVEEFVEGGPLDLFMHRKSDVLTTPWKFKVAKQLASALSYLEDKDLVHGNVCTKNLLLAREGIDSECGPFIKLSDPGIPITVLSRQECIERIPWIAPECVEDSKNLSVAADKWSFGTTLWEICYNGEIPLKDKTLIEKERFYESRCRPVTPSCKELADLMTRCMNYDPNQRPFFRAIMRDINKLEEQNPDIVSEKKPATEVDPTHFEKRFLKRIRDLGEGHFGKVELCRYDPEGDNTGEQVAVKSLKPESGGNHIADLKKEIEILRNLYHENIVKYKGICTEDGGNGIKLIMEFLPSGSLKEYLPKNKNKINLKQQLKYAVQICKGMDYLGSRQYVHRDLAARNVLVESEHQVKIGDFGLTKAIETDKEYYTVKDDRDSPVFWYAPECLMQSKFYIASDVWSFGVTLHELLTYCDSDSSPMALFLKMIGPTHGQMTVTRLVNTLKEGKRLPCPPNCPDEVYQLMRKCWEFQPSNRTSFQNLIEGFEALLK

SMILES	IC50 [nM]
C=CC(=O)N1CC[C@H]2CCN(c3ncnc4[nH]ccc34)[C@H]2C1	984
C=CC(=O)N1CCC[C@@H](N(C)c2ncnc3[nH]ccc23)C1	1150
C=CC(=O)N1CC[C@@H](C)[C@@H](N(C)c2ncnc3[nH]ccc23)C1	274
C=CC(=O)Nc1cccc(-c2ncnc3[nH]ccc23)c1	966
CC(=O)N1CC[C@H]2CCN(c3ncnc4[nH]ccc34)[C@H]2C1	863

Now from value to molecule:

IC50 [nM]	SMILES
1400	C=CC(=O)N1CCC[C@@H](Nc2ncnc3[nH]ccc23)C1
2290	C/C=C/C(=O)N1CCC[C@@H](Nc2ncnc3[nH]ccc23)C1

tested on: not listed separately; experiment: Stability in human whole blood assessed as GST-mediated clearance by measuring half-life at 1 uM by LC-MS/MS analysis; format: ADME; conditions: not given

half-life at 1 µM [h]	SMILES
> 5	C=CC(=O)N1CC[C@H](C)[C@@H](Nc2ncnc3[nH]ccc23)C1
> 4.17	C=CC(=O)N1C[C@@H](C)C[C@@H](Nc2ncnc3[nH]ccc23)C1 (single isomer, unassigned)
> 6	C=CC(=O)N1CCC[C@@H](Nc2ncnc3[nH]ccc23)[C@H]1C (racemic)

molecular target: T2, Tyrosine-protein kinase JAK3 (Homo sapiens, UniProt P52333); experiment: Inhibition of JAK3 in human whole blood assessed as inhibition of IL-15 induced STAT5 phosphorylation preincubated for 45 mins followed by IL-15 addition and measured after 15 mins by Alexa Fluor 647 staining based flow cytometric analysis; conditions: not given
T2 sequence (P52333 whole entry): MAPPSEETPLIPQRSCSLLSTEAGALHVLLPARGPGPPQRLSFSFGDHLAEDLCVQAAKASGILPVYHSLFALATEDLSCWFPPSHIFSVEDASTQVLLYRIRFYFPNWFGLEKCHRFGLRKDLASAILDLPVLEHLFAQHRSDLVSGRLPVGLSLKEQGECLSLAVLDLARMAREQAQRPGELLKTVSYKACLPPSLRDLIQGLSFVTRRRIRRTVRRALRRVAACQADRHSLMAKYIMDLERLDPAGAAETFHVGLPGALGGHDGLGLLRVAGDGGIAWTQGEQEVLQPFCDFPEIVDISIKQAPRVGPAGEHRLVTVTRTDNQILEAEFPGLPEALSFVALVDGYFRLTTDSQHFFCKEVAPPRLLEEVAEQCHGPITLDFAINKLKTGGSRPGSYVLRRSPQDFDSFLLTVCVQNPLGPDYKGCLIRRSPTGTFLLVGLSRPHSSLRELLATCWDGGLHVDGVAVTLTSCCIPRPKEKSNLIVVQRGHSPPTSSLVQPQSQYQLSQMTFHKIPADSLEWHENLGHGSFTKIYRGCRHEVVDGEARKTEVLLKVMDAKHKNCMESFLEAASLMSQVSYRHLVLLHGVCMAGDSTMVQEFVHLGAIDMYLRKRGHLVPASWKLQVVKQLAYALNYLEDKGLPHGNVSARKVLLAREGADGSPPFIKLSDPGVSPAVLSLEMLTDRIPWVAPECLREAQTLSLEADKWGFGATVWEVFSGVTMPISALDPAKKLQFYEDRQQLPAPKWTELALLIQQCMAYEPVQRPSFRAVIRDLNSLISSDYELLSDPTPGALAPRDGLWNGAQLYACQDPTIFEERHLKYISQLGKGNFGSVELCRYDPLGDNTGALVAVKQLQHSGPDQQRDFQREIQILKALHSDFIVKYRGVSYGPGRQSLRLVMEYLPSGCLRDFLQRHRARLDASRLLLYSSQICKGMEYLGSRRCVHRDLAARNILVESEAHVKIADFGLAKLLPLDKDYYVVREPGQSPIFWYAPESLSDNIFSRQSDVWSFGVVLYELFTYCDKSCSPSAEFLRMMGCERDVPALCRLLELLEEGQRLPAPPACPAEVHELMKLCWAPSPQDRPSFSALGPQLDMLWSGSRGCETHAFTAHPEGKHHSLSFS

IC50 [nM]	SMILES
580	C=CC(=O)N1CCC[C@@H](Nc2ncnc3[nH]ccc23)C1
2280	C=CC(=O)Nc1cccc(-c2ncnc3[nH]ccc23)c1

molecular target: T1, Tyrosine-protein kinase JAK1; experiment: Inhibition of recombinant human GST-tagged cytoplasmic JAK1 catalytic domain (866 to 1154 residues) expressed in baculovirus expression system using 5FAM-KKSRGDYMTMQID as substrate in presence of 1 mM ATP by microfluidic assay; conditions: not given

SMILES	IC50 [nM]
C=CC(=O)N1CC[C@H]2CCN(c3ncnc4[nH]ccc34)[C@H]2C1	> 10000
C=CC(=O)N1CCC[C@@H](N(C)c2ncnc3[nH]ccc23)C1	7820
C=CC(=O)N1CC[C@@H](C)[C@@H](N(C)c2ncnc3[nH]ccc23)C1	988
C=CC(=O)Nc1cccc(-c2ncnc3[nH]ccc23)c1	8710
CC(=O)N1CC[C@H]2CCN(c3ncnc4[nH]ccc34)[C@H]2C1	> 10000

The next lines start with the values.

IC50 [nM]	SMILES
> 10000	C=CC(=O)N1CCC[C@@H](Nc2ncnc3[nH]ccc23)C1
> 10000	C/C=C/C(=O)N1CCC[C@@H](Nc2ncnc3[nH]ccc23)C1

tested on: not listed separately; experiment: Stability in human liver microsomes; format: ADME, microsome; conditions: read-out: Stability

microsomal CLint [µL/min/mg]	SMILES
12.2	C=CC(=O)N1CC[C@H]2CCN(c3ncnc4[nH]ccc34)[C@H]2C1
8	C=CC(=O)N1CCC[C@@H](Nc2ncnc3[nH]ccc23)C1
< 8	CC(=O)N1CC[C@H]2CCN(c3ncnc4[nH]ccc34)[C@H]2C1

molecular target: Tyrosine-protein kinase JAK2 (Homo sapiens, UniProt O60674); experiment: Inhibition of recombinant human GST-tagged cytoplasmic JAK2 catalytic domain (809 to 1153+9 residues) expressed in baculovirus expression system using FITC-KGGEEEEYFELVKK as substrate in presence of 1 mM ATP by microfluidic assay; conditions: not given
Sequence (O60674 whole entry, the tested form may be a part): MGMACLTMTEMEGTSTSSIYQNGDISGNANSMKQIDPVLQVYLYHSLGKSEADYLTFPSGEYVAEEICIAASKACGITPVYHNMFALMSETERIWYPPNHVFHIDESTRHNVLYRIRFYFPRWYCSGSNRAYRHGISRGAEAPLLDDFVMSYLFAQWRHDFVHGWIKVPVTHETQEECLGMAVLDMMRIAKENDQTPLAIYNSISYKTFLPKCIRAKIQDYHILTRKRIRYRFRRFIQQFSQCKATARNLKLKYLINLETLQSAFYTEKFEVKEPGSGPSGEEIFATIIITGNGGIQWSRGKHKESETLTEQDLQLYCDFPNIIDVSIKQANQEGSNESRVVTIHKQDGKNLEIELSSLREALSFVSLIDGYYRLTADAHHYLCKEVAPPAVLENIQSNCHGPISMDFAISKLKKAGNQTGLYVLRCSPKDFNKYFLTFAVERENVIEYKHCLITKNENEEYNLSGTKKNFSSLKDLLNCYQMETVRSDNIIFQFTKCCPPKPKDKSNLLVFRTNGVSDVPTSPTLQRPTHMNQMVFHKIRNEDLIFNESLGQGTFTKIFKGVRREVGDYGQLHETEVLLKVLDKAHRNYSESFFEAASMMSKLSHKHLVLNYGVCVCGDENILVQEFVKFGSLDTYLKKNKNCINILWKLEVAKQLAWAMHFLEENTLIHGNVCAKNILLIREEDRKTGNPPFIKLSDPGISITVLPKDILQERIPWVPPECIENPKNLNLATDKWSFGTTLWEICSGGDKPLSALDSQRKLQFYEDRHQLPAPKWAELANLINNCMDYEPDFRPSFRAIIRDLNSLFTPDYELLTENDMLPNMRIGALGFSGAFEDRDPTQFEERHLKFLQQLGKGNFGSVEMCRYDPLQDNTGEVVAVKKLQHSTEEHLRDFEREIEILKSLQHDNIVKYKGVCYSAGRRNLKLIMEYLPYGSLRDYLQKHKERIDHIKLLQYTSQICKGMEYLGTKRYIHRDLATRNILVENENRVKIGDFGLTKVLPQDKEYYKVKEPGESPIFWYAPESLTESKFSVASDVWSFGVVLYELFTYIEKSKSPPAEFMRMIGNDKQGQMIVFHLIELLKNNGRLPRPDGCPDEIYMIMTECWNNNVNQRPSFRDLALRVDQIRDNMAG

SMILES	IC50 [nM]
C=CC(=O)N1CC[C@H]2CCN(c3ncnc4[nH]ccc34)[C@H]2C1	> 10000
C=CC(=O)N1CCC[C@@H](N(C)c2ncnc3[nH]ccc23)C1	> 10000
C=CC(=O)N1CC[C@@H](C)[C@@H](N(C)c2ncnc3[nH]ccc23)C1	2030
C=CC(=O)Nc1cccc(-c2ncnc3[nH]ccc23)c1	> 10000
CC(=O)N1CC[C@H]2CCN(c3ncnc4[nH]ccc34)[C@H]2C1	> 10000

Further lines, results first:

IC50 [nM]	SMILES
> 10000	C=CC(=O)N1CCC[C@@H](Nc2ncnc3[nH]ccc23)C1
> 10000	C/C=C/C(=O)N1CCC[C@@H](Nc2ncnc3[nH]ccc23)C1

tested on: not listed separately; experiment: Clearance in rat in absence of CYP450 inhibitor ABT; format: ADME; conditions: not given

clearance [mL/min/kg]	SMILES
109	C=CC(=O)N1CC[C@H]2CCN(c3ncnc4[nH]ccc34)[C@H]2C1
76	CC(=O)N1CC[C@H]2CCN(c3ncnc4[nH]ccc34)[C@H]2C1

tested on: not listed separately; experiment: Clearance in rat in presence of CYP450 inhibitor ABT; format: ADME; conditions: with ABT (CYP450 inhibitor)

clearance [mL/min/kg]	SMILES
81	C=CC(=O)N1CC[C@H]2CCN(c3ncnc4[nH]ccc34)[C@H]2C1
10	CC(=O)N1CC[C@H]2CCN(c3ncnc4[nH]ccc34)[C@H]2C1

tested on: not listed separately; experiment: Half-life in Sprague-Dawley rat blood at 1 uM by LC-MS/MS analysis; format: ADME, tissue-based; conditions: not given

half-life at 1 µM [h]	SMILES
2.73	C=CC(=O)N1CC[C@H]2CCN(c3ncnc4[nH]ccc34)[C@H]2C1
1.63	C=CC(=O)N1CCC[C@@H](Nc2ncnc3[nH]ccc23)C1

molecular target: T2, Tyrosine-protein kinase JAK3; experiment: Inhibition of recombinant human GST-tagged cytoplasmic JAK3 catalytic domain (781 to 1124 residues) expressed in baculovirus expression system using FITC-KGGEEEEYFELVKK as substrate in presence of 1 mM ATP by microfluidic assay; conditions: not given

SMILES	IC50 [nM]
C=CC(=O)N1CCC[C@@H](N(C)c2ncnc3[nH]ccc23)C1	3840
C=CC(=O)N1CC[C@@H](C)[C@@H](N(C)c2ncnc3[nH]ccc23)C1	1930
C=CC(=O)Nc1cccc(-c2ncnc3[nH]ccc23)c1	29
C=CC(=O)N1CCC[C@@H](Nc2ncnc3[nH]ccc23)[C@H]1C (racemic)	> 1000
CC(=O)N1CC[C@H]2CCN(c3ncnc4[nH]ccc34)[C@H]2C1	> 10000

More lines, now with the values ahead:

IC50 [nM]	SMILES
56	C=CC(=O)N1CCC[C@@H](Nc2ncnc3[nH]ccc23)C1
> 10000	C/C=C/C(=O)N1CCC[C@@H](Nc2ncnc3[nH]ccc23)C1

molecular target: T2, Tyrosine-protein kinase JAK3; experiment: Inhibition of JAK3 in human PBMC assessed as inhibition of IL-15 induced STAT5 phosphorylation preincubated for 75 mins followed by IL-15 addition and measured after 15 mins by Alexa Fluor 647 staining based flow cytometry; conditions: not given

IC50 [nM]	SMILES
107	C=CC(=O)N1CCC[C@@H](Nc2ncnc3[nH]ccc23)C1
32	C=CC(=O)Nc1cccc(-c2ncnc3[nH]ccc23)c1

tested on: not listed separately; experiment: Half-life in human whole blood at 1 uM by LC-MS/MS analysis; format: ADME; conditions: not given

half-life at 1 µM [h]	SMILES
3.2	C=CC(=O)N1CC[C@H]2CCN(c3ncnc4[nH]ccc34)[C@H]2C1
5.53	C=CC(=O)N1CCC[C@@H](Nc2ncnc3[nH]ccc23)C1

tested on: Mus musculus; experiment: (§1) Anti-inflammatory activity in po dosed sheep RBC-sensitized BALB/c mouse model of delayed-type hypersensitivity assessed as reduction in right hind foot pad thickness administered once daily for 7 days pretreated for 1 day followed by SRBC challenge and subsequent compound treatment for 6 days measured 24 hrs post SRBC rechallenge on day 6; format: functional, organism-based; conditions: not given

SMILES	Activity
C=CC(=O)N1CC[C@H]2CCN(c3ncnc4[nH]ccc34)[C@H]2C1	Dose-dependent effect

tested on: Mus musculus; experiment: as §1, with “in” for “in po dosed”, “thickness at 30 mg/kg, po” for “thickness”, “twice” for “once”; format: functional, organism-based; conditions: not given

SMILES	Activity
C[C@@H]1CCN(C(=O)CC#N)C[C@@H]1N(C)c1ncnc2[nH]ccc12	Active

tested on: not listed separately; experiment: Stability in rat liver microsomes; format: ADME, microsome; conditions: read-out: Stability

microsomal CLint [µL/min/mg]	SMILES
70	C=CC(=O)N1CC[C@H]2CCN(c3ncnc4[nH]ccc34)[C@H]2C1
< 15	C=CC(=O)N1CCC[C@@H](Nc2ncnc3[nH]ccc23)C1
25	CC(=O)N1CC[C@H]2CCN(c3ncnc4[nH]ccc34)[C@H]2C1

molecular target: T2, Tyrosine-protein kinase JAK3; experiment: Inhibition of recombinant human GST-tagged cytoplasmic JAK3 catalytic domain (781 to 1124 residues) expressed in baculovirus expression system using FITC-KGGEEEEYFELVKK as substrate in presence of 4 uM ATP by microfluidic assay; conditions: not given

IC50 [nM]	SMILES
18	C=CC(=O)N1CCC[C@@H](N(C)c2ncnc3[nH]ccc23)C1
0.3	C=CC(=O)Nc1cccc(-c2ncnc3[nH]ccc23)c1
372	CC(=O)N1CC[C@H]2CCN(c3ncnc4[nH]ccc34)[C@H]2C1
1610	C/C=C/C(=O)N1CCC[C@@H](Nc2ncnc3[nH]ccc23)C1

molecular target: Non-receptor tyrosine-protein kinase TYK2 (Homo sapiens, UniProt P29597); experiment: Inhibition of recombinant human His-tagged TYK2 expressed in baculovirus infected sf21 cells using 5FAM-KKSRGDYMTMQID as substrate in presence of 1 mM ATP by microfluidic assay; conditions: not given
Sequence (P29597 whole entry): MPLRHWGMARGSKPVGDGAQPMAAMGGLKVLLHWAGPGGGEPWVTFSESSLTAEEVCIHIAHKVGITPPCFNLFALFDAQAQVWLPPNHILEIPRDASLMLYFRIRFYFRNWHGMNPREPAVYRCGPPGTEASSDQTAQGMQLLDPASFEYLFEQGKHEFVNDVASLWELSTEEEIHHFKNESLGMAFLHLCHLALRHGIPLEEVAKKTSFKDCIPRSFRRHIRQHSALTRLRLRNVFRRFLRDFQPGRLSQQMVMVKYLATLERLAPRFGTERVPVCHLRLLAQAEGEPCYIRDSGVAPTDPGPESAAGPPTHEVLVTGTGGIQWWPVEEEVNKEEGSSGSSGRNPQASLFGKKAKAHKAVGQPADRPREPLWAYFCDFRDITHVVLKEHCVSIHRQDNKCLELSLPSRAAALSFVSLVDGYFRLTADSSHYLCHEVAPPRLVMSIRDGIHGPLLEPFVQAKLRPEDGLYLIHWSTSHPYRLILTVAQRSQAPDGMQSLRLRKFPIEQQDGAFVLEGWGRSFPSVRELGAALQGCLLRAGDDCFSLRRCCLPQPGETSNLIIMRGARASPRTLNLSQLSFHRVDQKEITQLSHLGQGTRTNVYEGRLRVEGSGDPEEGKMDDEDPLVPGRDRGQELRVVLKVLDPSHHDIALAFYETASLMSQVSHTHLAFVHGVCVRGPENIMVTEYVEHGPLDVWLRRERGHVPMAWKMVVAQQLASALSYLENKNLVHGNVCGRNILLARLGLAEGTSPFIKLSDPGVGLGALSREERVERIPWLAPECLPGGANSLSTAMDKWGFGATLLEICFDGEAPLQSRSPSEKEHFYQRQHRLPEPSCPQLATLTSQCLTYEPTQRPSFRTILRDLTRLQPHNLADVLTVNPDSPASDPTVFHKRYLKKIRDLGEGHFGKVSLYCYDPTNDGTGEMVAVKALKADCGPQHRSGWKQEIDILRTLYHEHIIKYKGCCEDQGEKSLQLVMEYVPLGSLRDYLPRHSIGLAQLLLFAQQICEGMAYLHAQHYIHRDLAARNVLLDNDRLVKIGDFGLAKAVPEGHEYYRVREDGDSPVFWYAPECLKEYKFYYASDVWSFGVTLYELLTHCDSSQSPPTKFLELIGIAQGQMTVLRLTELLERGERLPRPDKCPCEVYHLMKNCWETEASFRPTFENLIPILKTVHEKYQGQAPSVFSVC

SMILES	IC50 [nM]
C=CC(=O)N1CC[C@H]2CCN(c3ncnc4[nH]ccc34)[C@H]2C1	> 10000
C=CC(=O)N1CCC[C@@H](N(C)c2ncnc3[nH]ccc23)C1	> 10000
C=CC(=O)N1CC[C@@H](C)[C@@H](N(C)c2ncnc3[nH]ccc23)C1	> 10000
C=CC(=O)Nc1cccc(-c2ncnc3[nH]ccc23)c1	> 10000
CC(=O)N1CC[C@H]2CCN(c3ncnc4[nH]ccc34)[C@H]2C1	> 10000

Now from value to molecule:

IC50 [nM]	SMILES
> 10000	C=CC(=O)N1CCC[C@@H](Nc2ncnc3[nH]ccc23)C1
> 10000	C/C=C/C(=O)N1CCC[C@@H](Nc2ncnc3[nH]ccc23)C1
